PubChem BioAssay (NCI)
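Following 48 hours of exposure in 96-well plates, responses at five concentrations were used to interpolate endpoints linearly. TGI denotes the concentration required for complete inhibition of growth.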

Columns and labels:
Assay in all cases: DTP human tumour cell line panel, 48 h
[1] = system: MCF7 breast
[2] = system: MDA-MB-231 breast
[3] = system: UACC-62 melanoma
[4] = system: SN12C renal
[5] = system: IGROV1 ovarian
[6] = system: OVCAR-3 ovarian
[7] = system: HT29 colon
[8] = system: SK-OV-3 ovarian
[9] = system: A549 NSCLC
[10] = system: NCI/ADR-RES ovarian
[11] = system: HCC-2998 colon
[12] = system: OVCAR-4 ovarian
[13] = system: SF-539 CNS
[14] = system: KM12 colon
[15] = system: SK-MEL-28 melanoma
[16] = system: SW-620 colon
[17] = system: PC-3 prostate
[18] = system: OVCAR-5 ovarian
[19] = system: NCI-H226 lung
[20] = system: NCI-H522 lung
[21] = system: UACC-257 melanoma
[22] = system: UO-31 renal
[23] = system: HCT-15 colon
[24] = system: RPMI-8226 leukemia
[25] = system: 786-0 renal
[26] = system: SF-268 CNS
[27] = system: HL-60(TB) leukemia
[28] = system: SNB-75 CNS
[29] = system: U251 CNS
[30] = system: LOX IMVI melanoma
[31] = system: SK-MEL-2 melanoma
[32] = system: SF-295 CNS
[33] = system: MOLT-4 leukemia
[34] = system: OVCAR-8 ovarian
[35] = system: NCI-H460 lung
[36] = system: COLO 205 colon
[37] = system: SNB-19 CNS
[38] = system: MDA-MB-435
[39] = system: EKVX NSCLC
[40] = system: DU-145 prostate
[41] = system: RXF 393 renal
[42] = system: HCT-116 colon
[43] = system: CAKI-1 renal
[44] = system: K-562 leukemia
[45] = system: HOP-62 NSCLC
[46] = system: MDA-N
[47] = system: SR leukemia
[48] = system: BT-549 breast
[49] = system: CCRF-CEM leukemia
[50] = system: M14 melanoma
[51] = system: MALME-3M melanoma
[52] = system: HS 578T breast
[53] = system: TK-10 renal
[54] = system: ACHN renal
[55] = system: NCI-H23 lung
[56] = system: A498 renal
[57] = system: HOP-92 NSCLC
[58] = system: SK-MEL-5 melanoma

Measured: TGI

Cc1ccc(N(C)S(=O)(=O)c2ccc([N+](=O)[O-])cc2)cc1
not listed: [55] | [56] | [57] | [58]
> 100 µM: all other assays above

NC(CSC(=O)c1ccccc1)C(=O)O (configuration not stated)
not listed: [11] | [44]
> 100 µM: all other assays above

C=CCN(C(=O)OC(C)(C)C)C1=CC2C(C)=CN(S(=O)(=O)c3ccccc3)C2C(OCc2ccccc2)=C1 (configuration not stated)
not listed: [13] | [26] | [37] | [47] | [56] | [57]
> 100 µM: all other assays above
